Measured values published in patent US20230241000A1, “GSK3 INHIBITOR-LOADED NANO FORMULATIONS AS A CANCER IMMUNOTHERAPEUTIC” (The Regents of the University of California, priority 2020, published 2023).

Experiments:
[1] = system: CD8+ T-cells in MC38 tumors; assay: Flow cytometry of tumor-infiltrating CD8+ T-cells in MC38 tumors; type: in vivo, C57BL/6 mice
From the text: In order to address the change in the immunological landscape with treatment, we asked whether sAZD1080 could impact the immune parameters that underpin treatment efficacy for immune checkpoint blocking antibodies. These include the CD8^+ cell number, the abundance of PD-1 expression on these cells, perforin release and the generation of cancer cell death, as reflected by activated caspase 3. For the first analysis, tumor cell digests were used to assess the number of CD8^+/CD107a^+/granzyme B^+ lymphocytes by flow cytometry (14, 30). […] In order to assess the status of PD-1 expression on CD8+ cells, flow cytometry was used to assess the % of […] cells in the tumor digests (14, 31).
Tumors were harvested from MC38 mice after sacrifice. Tumors larger than 100 mm^3 were divided in two, with one half preserved for histology and the other half used to conduct flow cytometry. To prepare samples for flow cytometry, tumor chunks of 2-3 mm^3 were incubated in an enzyme cocktail (1 mg/mL collagenase type IV, 2000 U DNase type IV, 0.1 mg/mL hyaluronidase type V in 1×HBSS) for 1 hour, and the digests passed through a 70 μm nylon filter. Cells were pelleted and washed in HBSS.
Cells were diluted in cell staining buffer, pelleted by centrifuging at 350×g for 5 minutes, and washed twice. […]

[2] = Safety analysis in MC38 mice (animal weight, blood chemistry, organ H&E histology); type: in vivo, C57BL/6 mice; settings: serum at sacrifice
Description: While there is sparse literature on the use of AZD1080 in animal studies, this agent had to be discontinued in a phase I clinical trial in humans due to nephrotoxicity (15).
The histology preparation and staining of tumor tissue and mouse organs was performed in the Pathology Core Facility of the UCLA Jonsson Comprehensive Cancer Center. Tissues were fixed in 10% neutral-buffered formalin for 24 hours, then gradually dehydrated in 25-75% ethanol solutions over 3 days. Tissues were embedded in paraffin, sectioned at 4 μm thickness, and stained by anti-CD8, anti-cleaved caspase 3, anti-perforin, anti-PD-1, or haemotoxylin and eosin (H&E). Slides were digitally scanned for analysis using Aperio ImageScope software (Leica Biosystems, Buffalo Grove, Ill.). Four fields of view were analyzed per tumor at 20× magnification, with all positively stained cells counted within the field and averaged across fields. The investigator was blinded with respect to the animal groups to avoid bias during counting. Fields of view were chosen to avoid the tumor periphery and processing artifacts.
At the time of sacrifice, blood was obtained by cardiac puncture from MC38 tumor growing animals and collected into Greiner Bio-One MiniCollect Capillary Blood collection system tubes. Tubes were centrifuged as per manufacturer's instructions to separate serum from blood cells. The serum was frozen at […] and subsequently used, to obtain a comprehensive serum chemistry panel, develop by IDEXX Laboratories (Westbrook, Me.), for use in the UCLA Division of Laboratory Animal Medicine (DLAM).

[3] = humans; literature (15); cited from earlier work
Pdcd1 expression = assay: RT-qPCR of Pdcd1 in anti-CD3 activated primary murine T-cells; type: cell-based, C57BL/6 mouse; settings: 10 μM, 72 hours, normalized against Gapdh
Description: This is compatible with the translational expression of T-bet, a transcription factor that interferes in PD-1 expression (FIG. 1, panel B).
Wells of a 96-well tissue culture plate were coated with anti-mouse CD3 antibody (Ultra-LEAF, Biolegend). 7.5 μL of 1 mg/mL antibody solution was diluted in 1 mL of 1×PBS, before 50 μL of the dilution was added to each plate well for 2 hours at 37° C. The wells were then thoroughly washed 3× with 1×PBS.
T-cells were extracted from C57BL/6 mouse spleens, using a standard procedure with minor modifications (71). Two mouse spleens were mechanically disrupted and the released cells were passed through a 70 μm filter. Red blood cells were lysed using RBC lysis buffer (eBioscience) at 4° C. for 5 minutes. 10 mL of 1×PBS was added to stop the lysis process, following which cells were pelleted at 300×g for 5 minutes. […]
Cells were collected and RNA was extracted using Direct-zol RNA MiniPrep Plus kits (Zymo), as per the manufacturer's instructions. Extracted RNA was converted into cDNA using SuperScript III First-Strand Synthesis System kits (Invitrogen). cDNA from treated T-cells was analyzed by RT-PCR using a LightCycler 480 instrument (Roche) and the LightCycler 480 SYBR Green I Master kit (Roche), per manufacturer's instructions. cDNA was analyzed using forward and reverse primers for Pdcd1, Tbx21, and Gapdh as a control, as described previously (10, 14). […]

In the case of `N#Cc1ccc2[nH]c(O)c(-c3ccc(CN4CCOCC4)cn3)c2c1` [AZD1080], the “% of CD8/PD-1+ cells in the tumor digests” value [1] is reported as “did not impact”, the “albumin:globulin ratio” value [2] is reported as “depress” and the “blood chemistry panel (overall)” value [2] is reported as “more variation in blood chemistry”. The “total bilirubin and BUN levels” value [2] was “reductions”, the “toxicity leading to discontinuation in phase I clinical trial” value [3] was “nephrotoxicity” and the “reduction in Pdcd1 mRNA expression” value (Pdcd1 expression) was ~6 fold.
